In data set [1] the test system is senescent myoblasts (passage 11). The data set is described as follows: microscopic observation of cell number and shape. Type of data set: cell-based, Human. The conditions noted are these: 4 weeks, FIG. 13; for numbers of cells: vs DMSO. The protocol: Myoblast cell lines (Human Skeletal Muscle Myoblasts, Lonza CC-2580 LOT:0000387550) were cultured in SkBM™-2 Basal Media (Lonza CC-3246) including an SkGM™-2 SingleQuots™ Kit (Lonza CC-3244) on plates coated with Collagen Type I (Greiner Bio One, 658950) in a 5% CO2 incubator at 37° C. Subculture was initiated when the cells were approximately 85% confluent in plates. Early subcultures were performed at a split ratio of 1:4, and later subcultures were performed at a split ratio of 1:2. When cell doubling time was 14 days, the cells were regarded as senescent myoblasts (cell passages 10 to 12).
Senescent cells were seeded on each well of a 6-well plate coated with Collagen Type I (Greiner Bio One, 657950) in a concentration of 2,000 cells/well. Senescent myoblasts (passage 11) were cultured in the presence of 5 μM of Y-27632, 5 μM of FASUDIL, and 0.5 μM of SR3677 for 4 weeks in a 5% CO2 incubator at 37° C. The culture media were changed at every 4 days with new culture media supplemented with 5 μM of Y-27632, 5 μM of FASUDIL, and 0.5 μM of SR3677. A negative control group was prepared in the same manner, except that 0.05 (v/v) % of DMSO was used.
FIG. 13 illustrates microscopic images of cells cultured in the presence of 5 μM of Y-27632, 5 μM of FASUDIL, and 0.5 μM of SR3677. In “a” of FIG. 13, a portion was selected and marked by a rectangle with a dashed line, and the selected portion was enlarged in a1 for closer examination of the cultured cells. In a1 of FIG. 13, a portion was selected, marked by a rectangle with a dashed line, enlarged in a2 for much closer examination of the cultured cells (Scale bar 20 μm).

Data set [2] deals with senescent fibroblasts (after 37 cell passages). The data set is described as follows: cell proliferation and colony formation, crystal violet stain. Type of data set: cell-based, human. The following applies: 4 weeks; for cell proliferation and cell colony formation: vs DMSO. How it is done:
Fibroblast cell lines were cultured in Dulbecco's Modified Eagle's Media (DMEM) supplemented with 10% fetal bovine serum (FBS) and 100 unit/ml of penicillin, and 100 μg/ml of streptomycin (two antibiotics are purchased from Gibro-BRL and Grand Island, N.Y.) in a 5% CO2 incubator at 37° C. The fibroblast cell lines (M11 strain) were obtained from a foreskin of a child. Subculture was initiated when the cells were approximately 85% confluent in plates. Early subcultures were performed at a split ratio of 1:4, and later subcultures were performed at a split ratio of 1:2. When cell doubling time was 14 days, the cells were regarded as senescent fibroblasts (passages 35 to 37).
In order to determine optimum concentrations of Rho-kinase inhibitors Y-27632 (Selleckchem, S1049, 50 mg 2HCl salt form), FASUDIL (Selleckchem, S1573, 500 mg HCl salt form), and SR3677 (Synkinase, SYN1083, 10 mg), the senescent fibroblasts (after 37 cell passages) were seeded on each well of a 6-well plate in a concentration of 2,000 cells/well, and the wells were treated with 1 μM, 5 μM, 10 μM, 20 μM, and 30 μM of Y-27632, 1 μM, 5 μM, 10 μM, 20 μM, and 30 μM of FASUDIL, and 0.01 μM, 0.05 μM, 0.1 μM, 0.5 μM, and 1 μM of SR3677. In addition, a negative control group was prepared in the same manner, except that dimethyl sulfoxide (DMSO) was used. The culture media supplemented with the Rho-kinase inhibitors were changed at every 4 days, and colonies were stained with a 0.05% crystal violet stain after 4 weeks.

In data set [3] the test system is senescent fibroblasts (after 38 cell passages). Description: DNA comet assay. The data set is classed as cell-based, human. The following applies: 4 weeks, vs control, p<0.01, FIG. 12. The protocol:
The degrees of restoration of DNA damage in senescent cells by the Rho-kinase inhibitors were identified by a DNA comet assay. This method is performed by detecting DNA fractions cleaved by ultraviolet (UV) irradiation. This method is based on gel electrophoresis. During gel electrophoresis, damaged DNA migrates farther than normal DNA forming a tail like a comet-tail. Then, a slide was stained with SYBR Green, and the length of a tail of a DNA fraction was measured using a fluorescence microscope to identify the degree of DNA damage.
FIG. 12 is a graph displaying degrees of DNA damage in fibroblasts (after 38 cell passages) cultured in the presence of Rho-kinase inhibitors Y-27632 (5 μM), Fasudil (5 μM), and SR3677 (0.5 μM) measured by a DNA comet assay indicating the degree of DNA damage. In FIG. 12, senescent cells (after 38 cell passages) were cultured in culture media supplemented with 5 μM of Y-27632, 5 μM of FASUDIL, and 0.5 μM of SR3677 for 4 weeks in a 5% CO2 incubator at 37° C. The culture media were changed at every 4 days with new culture media supplemented with 5 μM of Y-27632, 5 μM of FASUDIL, and 0.5 μM of SR3677. Also, negative control groups were prepared in the same manner as described above, except that one negative control group was prepared with no treatment and another was treated with 0.05 (v/v) % of DMSO. Cells having undergone 17 passages and having a cell doubling time of 4 to 5 days were used as young cells. […] Thus, it was confirmed that the degree of DNA damage increases in senescent cells. In the Comet assay, the Tail Moment is defined as multiplication of a length of the tail by a total DNA fraction contained in the tail. That is, the Tail Moment is a length of the tail migrated during gel electrophoresis. As the length of the tail decreases, the degree of DNA damage decreases. […] In FIG. 12, ** indicates statistically significant (p<0.01). In FIG. 12, the “Fibroblast p17” and “Fibroblast p38” refer to fibroblasts that were subcultured for 17 passages and fibroblasts subcultured for 38 passages, respectively.

From patent US9943525B2, “Composition for reducing cell senescence comprising Rho-kinase inhibitor and use thereof” (Samsung Electronics Co., Ltd., priority 2014, dated 2018) come the findings set out here.

Turning to `O=S(=O)(c1cccc2cnccc12)N1CCCNCC1` [FASUDIL, 5-(1,4-diazepane-1-sulfonyl)isoquinoline], in data set [1] (5 μM), the cell shape result is reported as “spindle shape generally found in young cells” and the numbers of cells result is “greater than that of the control group”. Moreover, the “cell proliferation and cell colony formation” value in data set [2] (5 μM, FIG. 1 B) is reported as “greatest therapeutic effects”. Moreover, the “toxic effects on cell proliferation and cell colony formation” value (“toxic effects” for short) in data set [2] (10 μM, 20 μM, and 30 μM, FIG. 1 B) was “reduces cell proliferation and cell colony formation due to toxic effects”. The “DNA damage (Tail Moment)” value in data set [3] (5 μM) is given as “considerably restored”.
In the case of `CN(C)CCOc1cc(-c2cn[nH]c2)ccc1NC(=O)C1COc2ccccc2O1` (stereo not drawn) [SR3677], in data set [1] (0.5 μM), the cell shape entry is given as “spindle shape generally found in young cells” and the numbers of cells result is “greater than that of the control group”. For the same molecule, the “cell proliferation and cell colony formation” value in data set [2] (0.5 μM, FIG. 1 C) was “greatest therapeutic effects”. Further, in data set [2] (1 μM, FIG. 1 C), the “toxic effects” value was “reduces cell proliferation and cell colony formation due to toxic effects”. For the same molecule, the “DNA damage (Tail Moment)” value in data set [3] (0.5 μM) is “considerably restored”.
As for `C[C@@H](N)[C@H]1CC[C@H](C(=O)Nc2ccncc2)CC1` [Y-27632, (1R,4R)-4-((R)-1-aminoethyl)-N-(pyridin-4-yl)cyclohexanecarboxamide], in data set [1] (5 μM), the cell shape result is “spindle shape generally found in young cells” and the numbers of cells entry is listed as “greater than that of the control group”. Further, in data set [2] (5 μM, 10 μM, and 20 μM, FIG. 1 A), the “cell proliferation and cell colony formation” value is reported as “greatest therapeutic effects”. The “toxic effects” value in data set [2] (30 μM, FIG. 1 A) was “reduces cell proliferation and cell colony formation due to toxic effects”. For the same molecule, the “DNA damage (Tail Moment)” value in data set [3] (5 μM) is recorded as “considerably restored”.
